Several values for one entry are separate records, joined by “and”; a condition that tells them apart may be missing. Equal values may be shown once. Entries after “also recorded” stand apart in the source; their conditions may differ.

The subject of the experiment is antibody-forming cells (AFC) in the spleen. Put plainly: Influence of AFP/compound complexes and their components on humoral immune response (AFC in spleen). In kind it is in vivo, C57B1/6 mice. Particulars: for Dose at which immunostimulating effect in vivo is displayed: compound in a complex with AFP. The protocol: 0.15 ml of AFP/Compound 3 complex was administered intravenously to 6 mice males of C57B1/6 line (weight 18-22 g) in the dose of […] of AFP and 45.5 μg of compound 3 per capita. Simultaneously suspension of 5·10^7 sheep erythrocytes was injected intraperitoneally (0.2 ml per capita). In the group with compound 3 mice were injected intravenously by one in the dose of 45.5 μg. Animals of group with AFP received 9 μg of AFP. Mice of control group were injected intravenously with equal volume of saline. Complex AFP/Compound 3 effect on humoral immune response was analyzed by counting the quantity of AFC in the spleen according to Cunningham (per 10^6 spleen cells and per spleen).
0.15 ml of AFP/Compound 2a complex (1:100) was administered intravenously to 6 mice males of C57B1/6 line (weight 18-22 g) in the dose of 9 μg of AFP and 45.5 μg of compound 2a per capita. Simultaneously, a suspension of 5·10^7 sheep erythrocytes was injected intraperitoneally (0.2 ml per capita). In the group with compound 2a mice were injected intravenously by one in the dose of 45.5 μg. Animals of group with AFP received 9 μg of AFP. Mice in the control group were injected intravenously with an equal volume of saline. The effect of the AFP/Compound 2a complex on humoral immune response was analyzed by counting the quantity of AFC in the spleen according to Cunningham (per 10^6 spleen cells and per spleen).
(§1) 0.15 ml of AFP/Compound 10 complex (1:200) was administered intravenously to 6 male mice of C57B1/6 line (weight 18-22 g) in the dose of 9 μg of AFP and 91 μg of compound 10 per capita. Simultaneously, a suspension of 5·10^7 sheep erythrocytes was injected intraperitoneally (0.2 ml per capita). In the group receiving compound 10 mice were injected intravenously by one in the dose of 91 μg. Animals in the group with AFP received 9 μg of AFP. Micein the control group were injected intravenously with an equal volume of saline. The effect of the AFP/Compound 10 complex on humoral immune response was analyzed by counting the quantity of AFC in the spleen according to Cunningham (per 10^6 spleen cells and per spleen).
as §1, with “AFP/Compound 14” for “AFP/Compound 10”, “compound 14” for “compound 10”, “group with” for “group receiving”, “Animals of” for “Animals in the”, “AFP. Mice in” for “AFP. Micein”
0.15 ml of AFP/Compound 7 complex (1:200) was administered intravenously to 6 male mice of C57B1/6 line (weight 18-22 g) in the dose of 9 μg of AFP and 91 μg of compound 7 per capita. Simultaneously, a suspension of 5·10^7 sheep erythrocytes was injected intraperitoneally (0.2 ml per capita). In the group with compound 7 mice were injected intravenously by one in the dose of 91 μg. Animals of group with AFP received 9 μg of AFP. Mice of control group were injected intravenously with equal volume of saline. AFP/Compound 7 complex effect on humoral immune response was analyzed by counting the quantity of AFC in the spleen according to Cunningham (per 10^6 spleen cells and per spleen).
0.15 ml of AFP/Compound 15 complex (1:200) was administered intravenously to 6 mice males of C57B1/6 line (weight 18-22 g) in the dose of 9 μg of AFP and 91 μg of compound 15 per capita. Simultaneously, a suspension of 5·10^7 sheep erythrocytes was injected intraperitoneally (0.2 ml per capita). In the group receiving compound 15, the mice were injected intravenously by one in the dose of 91 μg. Animals in the AFP-group received 9 μg of AFP. […]

Setting [1] is: AFP alone 9 μg/mouse i.v., 5-th day, male mice.

With `CCCCC/C=C\C/C=C\C/C=C\C/C=C\CCCC(=O)N[C@H](C(=O)O)[C@@H](C)OP(=O)(O)O` [Compound 7, N-arachidonoyl-o-phospho-L-threonine], the “Dose at which immunostimulating effect in vivo is displayed” value (“Dose at which immunostimulating effect” for short) amounted to 91 μg/mouse. The Immunogenic activity entry (compound alone, 91 μg/mouse) was “no immunogenic activity; also recorded: do not inhibit immunogenic activity”.

As to `CC/C=C\C/C=C\C/C=C\C/C=C\C/C=C\CCCC(=O)N[C@H](C(=O)O)[C@@H](C)OP(=O)(O)O` [Compound 15, N-eicosapentaenoyl-o-phospho-L-threonine], the “Dose at which immunostimulating effect” value was 91 μg/mouse. Besides, the Immunogenic activity result (compound alone, 91 μg/mouse) is “no immunogenic activity; also recorded: do not inhibit immunogenic activity”.

Turning to `CC1=C(/C=C/C(C)=C/C=C/C(C)=C/C(=O)NCCOP(=O)(O)O)C(C)(C)CCC1` [Compound 1, N-(all-trans-retinoyl)-o-phospho-2-aminoethanol], the “Dose at which immunostimulating effect” value was determined as 45.5 μg/mouse. The Immunogenic activity result (compound alone, 45.5 μg/mouse) is “no immunogenic activity; also recorded: do not inhibit immunogenic activity”.

B1: human AFP: Alpha-fetoprotein isolated from human cord blood by immunoaffinity chromatography; AFP of Examples 38-41 (protein, UniProt P02771 19-609, looked up)
Alpha-fetoprotein: RTLHRNEYGIASILDSYQCTAEISLADLATIFFAQFVQEATYKEVSKMVKDALTAIEKPTGDEQSSGCLENQLPAFLEELCHEKEILEKYGHSDCCSQSEEGRHNCFLAHKKPTPASIPLFQVPEPVTSCEAYEEDRETFMNKFIYEIARRHPFLYAPTILLWAARYDKIIPSCCKAENAVECFQTKAATVTKELRESSLLNQHACAVMKNFGTRTFQAITVTKLSQKFTKVNFTEIQKLVLDVAHVHEHCCRGDVLDCLQDGEKIMSYICSQQDTLSNKITECCKLTTLERGQCIIHAENDEKPEGLSPNLNRFLGDRDFNQFSSGEKNIFLASFVHEYSRRHPQLAVSVILRVAKGYQELLEKCFQTENPLECQDKGEEELQKYIQESQALAKRSCGLFQKLGEYYLQNAFLVAYTKKAPQLTSSELMAITRKMAATAATCCQLSEDKLLACGEGAADIIIGHLCIRHEMTPVNPGVGQCCTSSYANRRPCFSSLVVDETYVPPAFSDDKFIFHKDLCQAQGVALQTMKQEFLINLVKQKPQITEEQLEAVIADFSGLLEKCCQGQEQEVCFAEEGQKLISKTRAALGV
With B1, the Immunogenic activity entry (AFP alone, 9 μg/mouse) is on record as “no immunogenic activity; also recorded: do not inhibit immunogenic activity”.

B2: rat AFP: Alpha-fetoprotein isolated from neonatal rat serum; AFP of Examples 42-44 (protein, UniProt P02773 25-611, looked up)
Alpha-fetoprotein: RVLHTNEFGIESTLDSSQCPTEKNMFNVATIVVAQFVQDATKAEVNKMSSDALAAMKENTGDGCLENQLSVFLDEICHETELSNKYGFSGCCNQSGVERHQCLLARKKTAPDSVPPFHFPETAESCPAYEENRAMSINTFIYDVSKRNPFLYAPTILYLAAQYDKAVPACCKADNMEECFQTKRASMAKELREGSMLNEHVCAVIRKFGSRNLQAVLIIKLSQKFPKANITEIRKLALDVAHIHEQCCHGNAMECLQDGESVMTHMCSQQEILSSKTAECCKLPTIELGYCIIHAENGDKPEGLTLNPSEFLGDRNFAQFSSEEKLLFMASFLHEYSRNHPNLPVSVILKTAKSYQEILEKCSQSETPSKCQDNMEEELQKHIQESQALAKQSCNLYQKLGPYYLQNLFLIGYTRKAPQLTSAELIDLTGKMVSIASTCCQLSEEKRSACGEGLADIYIGHLCLRHEANPVNSGINHCCSSSYSNRRLCITSFLRDETYVPPPFSEDKFIFHKDLCQAQGRALQTMKQELLINLVKQKPEMTEEQHAAVTADFSGLLEKCCKDQDQEACFAKEGPKLISKTREALGV
For B2, under setting [1], the “Relative amount of AFC (per 10^6 spleen cells)” value was 521.4±49.1 and 507.2±27.5 and 346.1±26.8; the “Total AFC amount (per spleen)” value was 59.7±5.1 ·10^3 and 64.6±6.8 ·10^3 and 34.1±3.3 ·10^3. In addition, the Immunogenic activity entry (AFP alone, 9 μg/mouse) is “no immunogenic activity; also recorded: do not inhibit immunogenic activity”.

The values above are taken from patent US6403554B2, “Polyunsaturated fatty acid derivatives and their use” (Ardenia Investments Ltd., priority 1998, dated 2002).
